# In patent publication US8299077B2 (Roche Palo Alto LLC, priority 2009, dated 2012):
# Tested on: B cell receptor-mediated activation of B cells in human blood (CD69 expression)
# Assay: Inhibition of B cell activation in whole blood measured by CD69 expression
# Format: cell-based
# Conditions: anti-IgM stimulation, 20 h, 50% decrease of CD69-positive cells that are also CD20-positive
# Method: Inhibition of B Cell Activation in Whole Blood Measured by CD69 Expression
# A procedure to test the ability of Btk inhibitors to suppress B cell receptor-mediated activation of B cells in human blood is as follows:
# Human whole blood (HWB) is obtained from healthy volunteers, with the following restrictions: 24 hr drug-free, non-smokers. Blood is collected by venipuncture into Vacutainer tubes anticoagulated with sodium heparin. Test compounds are diluted to ten times the desired starting drug concentration in PBS (20×), followed by three-fold serial dilutions in 10% DMSO in PBS to produce a nine point dose-response curve. 5.5 μl of each compound dilution is added in duplicate to a 2 ml 96-well V bottom plate (Analytical Sales and Services, #59623-23); 5.5 μl of 10% DMSO in PBS is added to control and no-stimulus wells. HWB (100 μl) is added to each well, and after mixing the plates are incubated at 37 C, 5% CO2, 100% humidity for 30 minutes. Goat F(ab′)2 anti-human IgM (Southern Biotech, #2022-14) (10 μl of a 500 μg/ml solution, 50 μg/ml final concentration) is added to each well (except the no-stimulus wells) with mixing and the plates are incubated for an additional 20 hours.
# At the end of the 20 hour incubation, samples are incubated with florescent-probe-labeled anti-bodies (15 μl PE Mouse anti-Human CD20, BD Pharmingen, #555623, and/or 20 ul APC Mouse anti-Human CD69, BD Pharmingen #555533) for 30 minutes, at 37 C, 5% CO2, 100% humidity. Included are induced control, unstained and single stains for compensation adjustments and initial voltage settings. Samples are then lysed with 1 ml of 1× Pharmingen Lyse Buffer (BD Pharmingen #555899), and plates are centrifuged at 1800 rpm for 5 minutes. Supernatants are removed via suction and the remaining pellets are lysed again with another 1 ml of 1× Pharmingen Lyse Buffer, and plates are spun down as before. Supernatants are aspirated and remaining pellets are washed in FACs buffer (PBS+1% FBS). After a final spin, the supernantants are removed and pellets are resuspended in 180 μl of FACs buffer. Samples are transferred to a 96 well plate suitable to be run on the HTS 96 well system on the BD LSR II flow cytometer.
# Using appropriate excitation and emission wavelengths for the fluorophores used, data are acquired and percent positive cell values are obtained using Cell Quest Software. Results are initially analyzed by FACS analysis software (Flow Jo). […] The IC50 values are calculated using XLfit software version 3, equation 201.
row,IC50 [nM],Compound
1,20,"Cn1cc(-c2cccc(-n3ccc4cc(C5CC5)cc(F)c4c3=O)c2CO)cc(Nc2ccc(C(C)(C)O)cn2)c1=O [Example I-72, 6-Cyclopropyl-8-fluoro-2-(2-hydroxymethyl-3-{5-[5-(1-hydroxy-1-methyl-ethyl)-pyridin-2-ylamino]-1-methyl-6-oxo-1,6-dihydro-pyridin-3-yl}-phenyl)-2H-isoquinolin-1-one]"
2,30,"Cn1cc(-c2cccc(-n3ncc4cc(C(C)(C)C)cc(F)c4c3=O)c2CO)cc(Nc2ccc(N3CCNCC3)cn2)c1=O [Example I-14, 6-tert-Butyl-8-fluoro-2-{2-hydroxymethyl-3-[1-methyl-6-oxo-5-(5-piperazin-1-yl-pyridin-2-ylamino)-1,6-dihydro-pyridin-3-yl]-phenyl}-2H-phthalazin-1-one]"
3,92,"Cn1cc(-c2cccc(-n3ccc4cc(C5CC5)cc(F)c4c3=O)c2CO)cc(Nc2ccc(S(C)(=O)=O)cn2)c1=O [Example I-62, 6-Cyclopropyl-8-fluoro-2-{2-hydroxymethyl-3-[5-(5-methanesulfonyl-pyridin-2-ylamino)-1-methyl-6-oxo-1,6-dihydro-pyridin-3-yl]-phenyl}-2H-isoquinolin-1-one]"
4,609,"Cn1cc(-c2cccc(-n3ccc4cc(C5CC5)cc(Cl)c4c3=O)c2CO)cc(Nc2ccc(C(=O)N3CCOCC3)cn2)c1=O [Example I-53, 8-Chloro-6-cyclopropyl-2-(2-hydroxymethyl-3-{1-methyl-5-[5-(morpholine-4-carbonyl)-pyridin-2-ylamino]-6-oxo-1,6-dihydro-pyridin-3-yl}-phenyl)-2H-isoquinolin-1-one]"
5,20,"CC(C)NCc1ccc(Nc2cc(-c3cccc(-n4ccc5cc(C6CC6)cc(F)c5c4=O)c3CO)cn(C)c2=O)nc1 [Example I-78, 6-Cyclopropyl-8-fluoro-2-(2-hydroxymethyl-3-{5-[5-(isopropylamino-methyl)-pyridin-2-ylamino]-1-methyl-6-oxo-1,6-dihydro-pyridin-3-yl}-phenyl)-2H-isoquinolin-1-one]"
6,51,"Cn1cc(-c2cccc(-n3ccc4cc(C5(C)CC5)cc(F)c4c3=O)c2CO)cc(Nc2ccc(S(C)(=O)=O)cn2)c1=O [Example I-61, 8-Fluoro-2-{2-hydroxymethyl-3-[5-(5-methanesulfonyl-pyridin-2-ylamino)-1-methyl-6-oxo-1,6-dihydro-pyridin-3-yl]-phenyl}-6-(1-methyl-cyclopropyl)-2H-isoquinolin-1-one]"
7,28,"Cn1cc(-c2cccc(-n3ncc4cc(C(C)(C)C)cc(F)c4c3=O)c2CO)cc(Nc2ccc(C(C)(C)N)cn2)c1=O [Example I-35, 2-(3-{5-[5-(1-Amino-1-methyl-ethyl)-pyridin-2-ylamino]-1-methyl-6-oxo-1,6-dihydro-pyridin-3-yl}-2-hydroxymethyl-phenyl)-6-tert-butyl-8-fluoro-2H-phthalazin-1-one]"
8,59,"CC(O)c1ccc(Nc2cc(-c3cccc(-n4ncc5cc(C(C)(C)C)cc(F)c5c4=O)c3CO)cn(C)c2=O)nc1 (centres unmarked) [Example I-36, 6-tert-Butyl-8-fluoro-2-(3-{5-[5-(1-hydroxy-ethyl)-pyridin-2-ylamino]-1-methyl-6-oxo-1,6-dihydro-pyridin-3-yl}-2-hydroxymethyl-phenyl)-2H-phthalazin-1-one]"
9,6,"Cn1cc(-c2cccc(-n3ccc4cc(C(C)(C)O)cc(F)c4c3=O)c2CO)cc(Nc2ccc(N3CCC(C)(O)CC3)cn2)c1=O [Example I-58, 8-Fluoro-6-(1-hydroxy-1-methyl-ethyl)-2-{2-hydroxymethyl-3-[5-(4-hydroxy-4-methyl-3,4,5,6-tetrahydro-2H-[1,3′]bipyridinyl-6′-ylamino)-1-methyl-6-oxo-1,6-dihydro-pyridin-3-yl]-phenyl}-2H-isoquinolin-1-one]"
10,44,"Cn1cc(-c2cccc(-n3ncc4cc(C(C)(C)C)cc(F)c4c3=O)c2CO)cc(Nc2ccn(C(C)(C)C)c(=O)n2)c1=O [Example I-50, 6-tert-Butyl-2-{3-[5-(1-tert-butyl-2-oxo-1,2-dihydro-pyrimidin-4-ylamino)-1-methyl-6-oxo-1,6-dihydro-pyridin-3-yl]-2-hydroxymethyl-phenyl}-8-fluoro-2H-phthalazin-1-one]"
11,93,"Cn1cc(-c2cccc(-n3ccc4cc(C5CC5)cc(F)c4c3=O)c2CO)cc(Nc2ccc(OCCO)cn2)c1=O [Example I-79, 6-Cyclopropyl-8-fluoro-2-(3-{5-[5-(2-hydroxy-ethoxy)-pyridin-2-ylamino]-1-methyl-6-oxo-1,6-dihydro-pyridin-3-yl}-2-hydroxymethyl-phenyl)-2H-isoquinolin-1-one]"
12,16,"CN1CCN(c2ccc(Nc3cc(-c4cccc(-n5ccc6cc(C7(C)CC7)cc(F)c6c5=O)c4CO)cn(C)c3=O)nc2)CC1 [Example I-55, 8-Fluoro-2-(2-hydroxymethyl-3-{1-methyl-5-[5-(4-methyl-piperazin-1-yl)-pyridin-2-ylamino]-6-oxo-1,6-dihydro-pyridin-3-yl}-phenyl)-6-(1-methyl-cyclopropyl)-2H-isoquinolin-1-one]"
13,6,"CCNC(C)(C)c1ccc(Nc2cc(-c3cccc(-n4ncc5cc(C(C)(C)C)cc(F)c5c4=O)c3CO)cn(C)c2=O)nc1 [Example I-47, 6-tert-Butyl-2-(3-{5-[5-(1-ethylamino-1-methyl-ethyl)-pyridin-2-ylamino]-1-methyl-6-oxo-1,6-dihydro-pyridin-3-yl}-2-hydroxymethyl-phenyl)-8-fluoro-2H-phthalazin-1-one]"
14,11,"CN1CCN(c2ccc(Nc3cc(-c4cccc(-n5ccc6cc(N(C)C)cc(F)c6c5=O)c4CO)cn(C)c3=O)nc2)CC1 [Example I-4, 6-Dimethylamino-8-fluoro-2-(2-hydroxymethyl-3-{1-methyl-5-[5-(4-methyl-piperazin-1-yl)-pyridin-2-ylamino]-6-oxo-1,6-dihydro-pyridin-3-yl}-phenyl)-2H-isoquinolin-1-one]"
15,10,"Cn1cc(-c2cccc(-n3ncc4cc(C(C)(C)C)cc(F)c4c3=O)c2CO)cc(Nc2ccc(N3CCC(C)(O)CC3)cn2)c1=O [Example I-17, 6-tert-Butyl-8-fluoro-2-{2-hydroxymethyl-3-[5-(4-hydroxy-4-methyl-3,4,5,6-tetrahydro-2H-[1,3′]bipyridinyl-6′-ylamino)-1-methyl-6-oxo-1,6-dihydro-pyridin-3-yl]-phenyl}-2H-phthalazin-1-one]"
16,181,"Cc1c(-c2cc(Nc3ccc(N4CCN(C)CC4)cn3)c(=O)n(C)c2)cccc1-n1ncc2cc(C(C)(C)C)cc(F)c2c1=O [Example I-28, 6-tert-Butyl-8-fluoro-2-(2-methyl-3-{1-methyl-5-[5-(4-methyl-piperazin-1-yl)-pyridin-2-ylamino]-6-oxo-1,6-dihydro-pyridin-3-yl}-phenyl)-2H-phthalazin-1-one]"
17,14,"CN1CCN(c2ccc(Nc3cc(-c4cccc(-n5ccc6cc(C7CC7)cc(F)c6c5=O)c4CO)cn(C)c3=O)nc2)CC1 [Example I-54, 6-Cyclopropyl-8-fluoro-2-(2-hydroxymethyl-3-{1-methyl-5-[5-(4-methyl-piperazin-1-yl)-pyridin-2-ylamino]-6-oxo-1,6-dihydro-pyridin-3-yl}-phenyl)-2H-isoquinolin-1-one]"
18,91,"Cn1cc(-c2cccc(-n3ncc4cc(C(C)(C)C)cc(F)c4c3=O)c2CO)cc(Nc2ccc(CO)cn2)c1=O [Example I-26, 6-tert-Butyl-8-fluoro-2-{2-hydroxymethyl-3-[5-(5-hydroxymethyl-pyridin-2-ylamino)-1-methyl-6-oxo-1,6-dihydro-pyridin-3-yl]-phenyl}-2H-phthalazin-1-one]"
19,1730,"Cn1cc(-c2cccc(-n3ncc4cc(C(C)(C)C)cc(F)c4c3=O)c2CO)cc(NC2=NCCCO2)c1=O [Example I-44, 6-tert-Butyl-2-{3-[5-(5,6-dihydro-4H-[1,3]oxazin-2-ylamino)-1-methyl-6-oxo-1,6-dihydro-pyridin-3-yl]-2-hydroxymethyl-phenyl}-8-fluoro-2H-phthalazin-1-one]"
20,33,"CNC(=O)C(C)(C)c1ccc(Nc2cc(-c3cccc(-n4ccc5cc(C6CC6)cc(F)c5c4=O)c3CO)cn(C)c2=O)nc1 [Example I-69, 2-(6-{5-[3-(6-Cyclopropyl-8-fluoro-1-oxo-1H-isoquinolin-2-yl)-2-hydroxymethyl-phenyl]-1-methyl-2-oxo-1,2-dihydro-pyridin-3-ylamino}-pyridin-3-yl)-N-methyl-isobutyramide]"
